Assay results reported in patent US9464113B2, “Anti-heparan sulfate peptides that block herpes simplex virus infection in vivo” (The Board of Trustees of the University of Illinois, priority 2010, dated 2016).
No end group written: not given here.

Key:
[1] = system: HSV-1 (KOS) gL86; assay: HSV-1 entry assay in CHO-K1 cells expressing gD receptors (3-OST-3, nectin-1, HVEM); format: cell-based, herpes simplex virus type-1; details: CHO-K1 cells expressing one of three gD receptors; dose-dependent
Experimental: (§1) HSV-1 entry was assayed as described in Shukla et al., Cell 99:13-22 (1999). CHO-K1 cells were grown in 6-well plates to subconfluence and then transfected with 2.5 μg of expression plasmids for gD receptors nectin-1 (pBG38), HVEM (pBec10), 3-OST-3 isoform (pDS43), or pCDNA3.1 (empty vector) using LipofectAMINE (Gibco/BRL). At 16 h post-transfection, the cells were replated into 96-well dishes for pre-incubation with peptides at different concentrations for 60 min at room temperature. In parallel, natural target cells (HeLa, CF, and RPE) were also pre-treated with the peptides for the same duration. In all cases, unbound peptides were removed after washing 3× with PBS. Thereafter, cells were infected for 6 h with a recombinant virus, HSV-1 (KOS) gL86, at multiple plaque forming units (PFUs) and β-galactosidase assays were performed using either a soluble substrate o-nitrophenyl-β-D-galactopyranoside (ONPG at 3.0 mg/ml; ImmunoPure, Pierce) or X-gal (Sigma). For the soluble substrate, the enzymatic activity was measured at 410 nm using a micro-plate reader (Spectra Max 190, Molecular Devices, Sunnyvale, Calif.). For the X-gal assay, cells were fixed (2% formaldehyde and 0.2% glutaraldehyde) and permeabilized (2 mM MgCl2, 0.01% deoxycholate, and 0.02% nonidet NP-40 (Sigma)). 1 ml of β-galactosidase reagent (1.0 mg/ml X-gal in ferricyanide buffer) was added to each well and incubated at 37° C. for 90 min before the cells were examined using bright field microscopy under the 20× objectives of the inverted microscope (Zeiss Axiovert 100 M).
Peptide sequences from individual plaques were deduced by determining the nucleotide sequences of the portion of the phage genome that encoded them. The predicted peptide sequences of about 200 plaques were determined and sorted into two groups on the basis of their targets. […] After 6 hr, the cells were washed, permeabilized, and incubated with ONPG substrate (3.0 mg/ml) for quantitation of β-galactosidase activity expressed from the input viral genome. The enzymatic activity was measured at an optical density of 410 nm (OD410). […]

[2] = system: HSV-1 (KOS) gL86; assay: HSV-1 entry into primary human corneal fibroblasts (CF); format: cell-based, herpes simplex virus type-1; details: for blocking of HSV-1 entry/infection: human CF, 60 min pre-treatment, 25 pfu/cell, 6 hr
Experimental: as §1
The ability of the G1 and G2 peptides to block HSV-1 entry into natural target cells (HeLa and primary cultures of human CF) was compared. A similar dosage response curve was generated when HeLa (FIG. 2A) or CF (FIG. 2B) were pre-treated with G1 or G2 peptides during HSV-1 entry. […] HeLa cells (FIG. 2A) and primary cultures of human corneal fibroblasts (CF) (FIG. 2B) were tested. Cells in 96-well plates were pre-treated for 60 min with indicated mM concentrations of G1, G2, or Cp peptides. Mock-treated cells (abbreviated as C) served as a control. Pretreated cells were infected with a β galactosidase-expressing recombinant virus HSV-1 (KOS) HSV-1 gL86 (25 pfu/cell) for 6 hr. Viral entry was quantitated as described above in reference to FIG. 1. Confirmation of HSV-1 entry blocking activity of G1, G2, and control (Cp) peptides on a per cell basis was obtained after cells were infected as described above followed by X-gal (1.0 mg/ml) staining (Right panels), which yields an insoluble blue product upon hydrolysis by β-galactosidase expressed from the input viral genomes. […] Microscopy was performed using a 20× objective of Zeiss Axiovert 100.
To better understand the inhibitory potential of G1 and G2 peptides, synthetic short variants (10-mer) were synthesized that lacked the terminal non-positively charged amino acids. In case of G1, N-terminus L and C-terminus H residues were removed. For G2, the N-terminus flanking residues (M and P) were removed. Without being bound by theory, it is believed that 12-mer peptides are too short to adopt substantial secondary or tertiary structures and that the primary structure of those peptides, which includes a defined sequence or groupings of positively charged residues, plays a critical role in mediating inhibition of HSV-1 entry. Synthetic 10-mer versions of G1 and G2 (shown above) were tested for blocking HSV-1(KOS)gL86 entry into cultured CF. After 6 h, the viral entry was measured by ONPG assay as described in FIG. 1.
Alanine (A) scanning mutagenesis was performed to identify specific amino acid residues responsible for each peptide's function, stability, and conformation. O'Nuallain et al., Biochemistry 46:13049-13058 (2007). Twelve synthetic peptides were made whereby each residue of G2 was sequentially replaced with an alanine residue and corresponding changes in the G2 peptide were evaluated for their ability to affect viral entry (FIG. 4B). […]

Sequence | blocking of HSV-1 entry [1] | activity normalized against wild-type G2 (higher than 1 = loss of activity) ([2]; alanine scanning, FIG. 4B) | blocking of HSV-1 entry/infection [2]
MPRRRRIRRRQK [G2, MPRRRRIRRRQK] | able to block HSV-1 entry | 1.00 | effective in blocking infection of individual cells
RVCGSIGKEVLG [Cp, reference compound] | did not inhibit HSV-1 entry | – | no effect on HSV-1 entry
LRSRTKIIRIRH [G1, LRSRTKIIRIRH] | able to block HSV-1 entry | – | effective in blocking infection of individual cells
